Measurements reported in patent publication US20260041620A1, “NOVEL AMINO ACID BASED SALTS, COMPOSITIONS AND METHODS FOR TREATING SKIN AND IMPROVING SKIN REJUVENATION AND LONGEVITY” (Sytheon Ltd, priority 2023, published 2026).
Where two headings read alike, the source gives them in different places.

What was measured:
Telomerase = Telomerase Activity Quantification qPCR Assay in human dermal fibroblasts; type: cell-based; conditions: 300 nM, three days
Experimental: Normal neonatal human dermal fibroblasts (HDF cat, #2310; ScienCell, Oceanside, CA) were grown to confluence in the 6 well plate format and incubated with the test substances identified in Table 3 for three days. Following incubation, the cells were lysed and telomerase activity was determined with Telomerase Activity Quantification qPCR Assay Kit from ScienCell (cat. #8928). Forget-Me-Not™ EvaGreen® qPCR Master Mix (Low ROX) (Biotium, Fremont, CA) was used for real-time quantitative PCR on C1000 Touch System with CFX384™ optical module Detection. For quantifying the level of activity, the Comparative Cq method was used, following the equation: […]
where TPS is telomere primer set, which recognizes and amplifies newly synthesized telomere sequences and Cq(TPS) is the Quantification Cycle Value obtained from the qPCR software. The relative telomerase activity difference between the experimental condition and control is expressed as 2^−ΔCq Telomerase activity was considered different if the level of expression was reasonably high (Cq≤33 cycles to detect), the difference vs. control was >2 fold and the p value, assessed with two-tailed Student test, was <0.05.

HDAC 4 = HDAC 4 (Homo sapiens, UniProt P56524); experiment: HDAC 4 fluorogenic assay kit
Experimental: (§3) Test materials were stored at room temperature and stock solutions were prepared at 20 mg/ml in DMSO. Further dilutions were made in sterile distilled water immediately before being added to the reaction mixture containing a substrate, and the reaction was triggered by the addition of purified HDAC enzymes, Double distilled water was the negative control and trichostatin (1.5 ug/ml) was used as a positive control for validation of each study. The test procedure was as directed in the assay kits. The products of the reactions were measured by fluorometry at ex/em 350/450 nm using multi-well plate fluorometer Cytofluor 4000 (Applied Biosystem, Foster City, CA) or using SpectraMax i3× Multi-Mode Detection Platform from Molecular Devices (Sunnyvale, CA).
(§4) Statistical significance was assessed with a two-tail Student test. Deviations of ≤20% as compared to water control with p values below 0.05 were considered statistically significant.

HDAC 11 = target: T1, HDAC 11 (Homo sapiens, UniProt Q96DB2); experiment: HDAC 11 fluorogenic assay kit; type: biochemical
T1 construct: purchased BPS Biosciences 50687
T1 sequence (Q96DB2 1-347): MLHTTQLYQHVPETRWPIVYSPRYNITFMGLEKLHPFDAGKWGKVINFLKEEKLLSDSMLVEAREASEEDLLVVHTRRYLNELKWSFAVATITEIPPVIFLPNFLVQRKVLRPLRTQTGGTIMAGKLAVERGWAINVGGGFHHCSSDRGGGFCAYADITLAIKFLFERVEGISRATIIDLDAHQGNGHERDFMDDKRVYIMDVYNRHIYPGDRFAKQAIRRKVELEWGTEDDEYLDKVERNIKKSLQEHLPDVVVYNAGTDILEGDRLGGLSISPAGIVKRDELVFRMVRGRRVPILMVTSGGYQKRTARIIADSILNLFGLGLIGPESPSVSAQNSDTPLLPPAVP
Experimental: as §3, §4

FAAH = target: T2, FAAH (Homo sapiens, UniProt O00519); experiment: FAAH fluorescence-based inhibitory assay; type: biochemical
T2 sequence (O00519 1-579): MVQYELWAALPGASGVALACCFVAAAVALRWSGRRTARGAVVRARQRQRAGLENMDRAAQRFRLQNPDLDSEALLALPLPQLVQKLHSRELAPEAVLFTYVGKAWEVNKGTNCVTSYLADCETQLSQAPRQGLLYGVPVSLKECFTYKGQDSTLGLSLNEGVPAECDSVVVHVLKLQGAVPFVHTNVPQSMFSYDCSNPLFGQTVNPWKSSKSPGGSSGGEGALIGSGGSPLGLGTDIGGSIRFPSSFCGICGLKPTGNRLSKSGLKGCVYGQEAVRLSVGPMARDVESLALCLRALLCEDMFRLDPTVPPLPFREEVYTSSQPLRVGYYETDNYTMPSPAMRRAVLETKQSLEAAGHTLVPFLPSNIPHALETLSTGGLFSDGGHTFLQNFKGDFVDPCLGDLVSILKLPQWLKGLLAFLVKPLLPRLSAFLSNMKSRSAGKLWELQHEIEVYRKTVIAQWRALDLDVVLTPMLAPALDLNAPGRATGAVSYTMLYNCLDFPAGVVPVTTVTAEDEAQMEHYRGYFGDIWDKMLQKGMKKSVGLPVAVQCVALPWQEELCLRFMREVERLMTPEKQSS

FABP-3 = target: T3, FABP-3 (Homo sapiens, UniProt P05413); experiment: FABP-3 ELISA inhibitory assay; type: biochemical
T3 construct: purchased Neovateinbio PT-452

FABP-5 = target: T4, FABP-5 (Homo sapiens, UniProt Q01469); experiment: FABP-5 ELISA inhibitory assay; type: biochemical
T4 construct: purchased Raybiotech 268-10276-1

MAGL = target: T5, MAGL (Homo sapiens, UniProt Q99685); experiment: MAGL inhibitory assay; type: biochemical
T5 construct: purchased Cayman 10007812
T5 sequence (Q99685 1-303): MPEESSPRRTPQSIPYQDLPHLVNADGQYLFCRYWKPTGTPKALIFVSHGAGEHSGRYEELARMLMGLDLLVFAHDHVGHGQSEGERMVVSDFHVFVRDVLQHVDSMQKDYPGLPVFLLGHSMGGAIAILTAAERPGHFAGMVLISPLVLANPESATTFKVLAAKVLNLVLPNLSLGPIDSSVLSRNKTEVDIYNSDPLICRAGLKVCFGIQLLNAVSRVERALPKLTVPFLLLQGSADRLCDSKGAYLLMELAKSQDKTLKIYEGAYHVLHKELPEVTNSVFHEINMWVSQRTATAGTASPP
Experimental: Each study was performed in duplicate and the results averaged.
The final concentration in each well was 10 μl of sample, 5.6 μM MAGL (Cayman Catalog #10007812) and 23.6 μM 2-Arachidonoyl Glycerol (Cayman catalog #62160).

HDAC 3 = HDAC 3 (Homo sapiens, UniProt O15379)
Experimental: as §3, §4

HDAC7 = target: T6, HDAC7 (Homo sapiens, UniProt Q8WUI4)
T6 sequence (Q8WUI4 1-952): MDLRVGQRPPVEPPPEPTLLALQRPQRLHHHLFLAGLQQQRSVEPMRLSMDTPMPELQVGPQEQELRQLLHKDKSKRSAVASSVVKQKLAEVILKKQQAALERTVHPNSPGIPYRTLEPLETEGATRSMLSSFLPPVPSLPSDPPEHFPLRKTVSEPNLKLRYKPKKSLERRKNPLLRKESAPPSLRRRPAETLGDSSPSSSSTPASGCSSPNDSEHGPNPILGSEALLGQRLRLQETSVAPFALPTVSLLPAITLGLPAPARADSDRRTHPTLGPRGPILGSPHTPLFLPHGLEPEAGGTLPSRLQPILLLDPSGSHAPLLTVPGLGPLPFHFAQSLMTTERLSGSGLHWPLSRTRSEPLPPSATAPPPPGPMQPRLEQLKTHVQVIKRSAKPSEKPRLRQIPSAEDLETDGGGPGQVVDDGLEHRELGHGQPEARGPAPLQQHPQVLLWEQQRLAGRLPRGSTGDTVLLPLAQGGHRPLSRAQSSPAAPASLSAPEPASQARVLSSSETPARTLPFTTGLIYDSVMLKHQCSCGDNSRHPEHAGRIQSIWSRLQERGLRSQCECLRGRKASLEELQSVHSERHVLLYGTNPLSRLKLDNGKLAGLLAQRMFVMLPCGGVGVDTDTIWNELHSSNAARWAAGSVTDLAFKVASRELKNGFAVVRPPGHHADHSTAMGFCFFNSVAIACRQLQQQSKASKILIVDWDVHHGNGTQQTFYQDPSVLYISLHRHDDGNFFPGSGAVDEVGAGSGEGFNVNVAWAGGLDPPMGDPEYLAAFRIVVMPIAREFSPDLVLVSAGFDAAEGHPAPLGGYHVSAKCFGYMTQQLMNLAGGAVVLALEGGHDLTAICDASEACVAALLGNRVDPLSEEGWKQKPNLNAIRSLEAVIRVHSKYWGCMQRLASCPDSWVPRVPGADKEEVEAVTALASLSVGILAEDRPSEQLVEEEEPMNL
Experimental: as §3, §4

HDAC10 = target: T7, HDAC10 (Homo sapiens, UniProt Q969S8)
T7 sequence (Q969S8 1-669): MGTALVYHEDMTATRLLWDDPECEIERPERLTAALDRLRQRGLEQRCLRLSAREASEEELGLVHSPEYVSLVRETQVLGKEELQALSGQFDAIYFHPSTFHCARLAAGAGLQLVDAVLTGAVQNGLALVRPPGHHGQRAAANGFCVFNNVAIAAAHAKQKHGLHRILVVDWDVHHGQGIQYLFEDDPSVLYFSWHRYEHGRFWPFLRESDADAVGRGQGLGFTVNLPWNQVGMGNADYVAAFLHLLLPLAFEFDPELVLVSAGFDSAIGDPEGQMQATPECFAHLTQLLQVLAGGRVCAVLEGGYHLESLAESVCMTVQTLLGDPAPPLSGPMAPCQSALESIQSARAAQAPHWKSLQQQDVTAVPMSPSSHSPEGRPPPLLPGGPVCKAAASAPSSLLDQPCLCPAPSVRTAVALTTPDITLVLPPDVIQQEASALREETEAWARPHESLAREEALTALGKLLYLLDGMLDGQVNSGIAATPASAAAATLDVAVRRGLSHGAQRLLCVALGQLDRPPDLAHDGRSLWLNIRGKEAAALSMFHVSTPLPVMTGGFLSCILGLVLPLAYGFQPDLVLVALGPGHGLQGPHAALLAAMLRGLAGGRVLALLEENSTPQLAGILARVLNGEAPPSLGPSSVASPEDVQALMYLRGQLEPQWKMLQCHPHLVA
Experimental: as §3, §4

HDAC1 = HDAC1 (Homo sapiens, UniProt Q13547); experiment: HDAC 1 fluorogenic assay kit; conditions: 200 ug/ml
Experimental: as §3, §4

Type I Collagen = Type I Collagen Assay (ELISA, fibroblast culture medium); type: cell-based, human; conditions: 10 μg/ml, 48 hours; untreated 1255 ± 83
Experimental: (§1) In the study, human neonatal fibroblasts were seeded into the individual wells of a 48-well plate in 0.25 ml of Fibroblasts Growth Media (FGM) and incubated overnight at 37±2° C. and a 5±1% CO2 atmosphere. On the following day the media was removed via aspiration to eliminate non-adherent cells and replaced with 0.5 ml of fresh FGM. The cells were grown until confluent, with a media change every 48 to 72 hours. Upon reaching confluency the cells were treated for 24 hours with Dulbecco's Modified Eagle's medium (DMED) supplemented with 1.5% Fetal Bovine Serum (FBS) to wash out any effects from the growth factors included in the normal culture media. After this 24-hour wash out period the cells were treated with the test materials at the specified concentrations dissolved in FGM with 1.5% FBS. Sodium ascorbate (10 ug/ml) was used as a positive control. Untreated cells (negative controls) only received DMEM with […], The cells were incubated for 48 hours and at the end of the incubation period, cell culture medium was collected and either stored frozen (−75 C) or assayed immediately. Materials were tested in triplicate.
A series of type I collagen peptide standards was prepared ranging from 0 ng/ml to 640 ng/ml. An ELISA microplate was prepared by removing any unneeded strips from the plate frame followed by the addition of 100 μl of peroxidase labelled anti-procollagen type I-C peptide antibody to each well used in the assay. A 20 μl sample of each of the collected tissue culture media or a standard was then added to appropriate wells and the microplate covered and allowed to incubate for 3±0.25 hours at 37 C. Following incubation, the wells were aspirated and washed three times with 400 μl of wash buffer. After the last wash was remove 100 μl of peroxidase substrate solution (hydrogen peroxide+tetramethylbenzidine as a chromogen) was added to each well and the plate incubated for 15±4 minutes at room temperature. Following this incubation, 100 μl of stop solution (1 N sulfuric acid) was added to each well and the plate read using a microplate reader at 450 nm.
(§2) To quantify the amount of each substance present, a standard curve was generated using known concentrations of each substance. A regression analysis was performed to establish the line that best fit those data points. Absorbance values for the test materials and untreated samples were used to estimate the amount of each substance present in each sample. Treatment means were compared using ANOVA, with an […] per treatment. Statistical significance was set at p≤0.05.

Type IV Collagen = Type IV Collagen Assay (ELISA, fibroblast culture medium); type: cell-based, human; conditions: 10 μg/ml, 48 hours; untreated 7.76 ± 0.92
Experimental: as §1
A series of type IV collagen peptide standards was prepared ranging from 0 ng/ml to 640 ng/ml. 100 μl of each standard or of each of the collected tissue culture media were added to the wells of type IV collagen ELISA plates. The plates were then incubated at 37° C. for 1 hour. After incubation, the ELISA plates were then washed twice with wash buffer, followed by the addition of 100 μl of detection antibody solution. The ELISA plates were then incubated for 1 hour at 37° C. Following incubation, the ELISA plates were washed with wash solution followed by the addition of 100 μl HEP conjugate solution and incubated at 37° C. for 30 minutes. Following the latter incubation, the ELISA plates were again washed and 100 μl of the substrate solution was added to each well and the well plates incubated for 10-30 minutes at room temperature to allow the color generation reaction to occur. At the end of the color generation reaction 100 μl of stop solution (1 N sulfuric acid) was added to each well and the plates read at 460 nm using a plate reader.
as §2

HDAC 4, sequence (P56524 whole entry): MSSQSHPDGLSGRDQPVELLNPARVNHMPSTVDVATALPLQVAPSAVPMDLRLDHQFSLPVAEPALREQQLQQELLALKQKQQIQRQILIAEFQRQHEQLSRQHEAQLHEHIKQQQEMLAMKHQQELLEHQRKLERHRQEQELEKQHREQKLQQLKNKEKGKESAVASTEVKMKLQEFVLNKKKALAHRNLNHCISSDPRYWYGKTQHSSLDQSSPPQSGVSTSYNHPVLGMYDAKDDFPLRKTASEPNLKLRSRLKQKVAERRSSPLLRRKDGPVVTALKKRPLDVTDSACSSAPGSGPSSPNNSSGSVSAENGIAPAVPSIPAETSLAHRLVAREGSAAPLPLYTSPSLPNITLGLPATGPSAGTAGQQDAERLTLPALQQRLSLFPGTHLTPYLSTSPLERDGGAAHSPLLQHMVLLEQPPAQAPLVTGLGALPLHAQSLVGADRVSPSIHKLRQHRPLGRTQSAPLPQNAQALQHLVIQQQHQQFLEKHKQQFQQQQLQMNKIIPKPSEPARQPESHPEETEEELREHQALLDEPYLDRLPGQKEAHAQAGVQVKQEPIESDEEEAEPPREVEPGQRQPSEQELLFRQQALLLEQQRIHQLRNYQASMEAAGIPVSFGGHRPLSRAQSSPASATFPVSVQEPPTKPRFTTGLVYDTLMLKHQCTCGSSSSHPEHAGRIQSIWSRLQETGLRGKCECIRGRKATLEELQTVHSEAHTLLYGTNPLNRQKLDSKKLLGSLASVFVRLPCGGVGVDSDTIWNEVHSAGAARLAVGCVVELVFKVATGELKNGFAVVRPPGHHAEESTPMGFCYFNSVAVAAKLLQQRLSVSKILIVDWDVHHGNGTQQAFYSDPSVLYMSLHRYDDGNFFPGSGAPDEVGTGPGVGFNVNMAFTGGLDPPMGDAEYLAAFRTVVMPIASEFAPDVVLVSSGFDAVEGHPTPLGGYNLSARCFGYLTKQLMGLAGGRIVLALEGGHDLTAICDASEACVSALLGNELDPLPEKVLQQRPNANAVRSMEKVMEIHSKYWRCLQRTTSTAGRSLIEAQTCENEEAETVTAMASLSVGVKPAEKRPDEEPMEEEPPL
HDAC 3, sequence (O15379 whole entry): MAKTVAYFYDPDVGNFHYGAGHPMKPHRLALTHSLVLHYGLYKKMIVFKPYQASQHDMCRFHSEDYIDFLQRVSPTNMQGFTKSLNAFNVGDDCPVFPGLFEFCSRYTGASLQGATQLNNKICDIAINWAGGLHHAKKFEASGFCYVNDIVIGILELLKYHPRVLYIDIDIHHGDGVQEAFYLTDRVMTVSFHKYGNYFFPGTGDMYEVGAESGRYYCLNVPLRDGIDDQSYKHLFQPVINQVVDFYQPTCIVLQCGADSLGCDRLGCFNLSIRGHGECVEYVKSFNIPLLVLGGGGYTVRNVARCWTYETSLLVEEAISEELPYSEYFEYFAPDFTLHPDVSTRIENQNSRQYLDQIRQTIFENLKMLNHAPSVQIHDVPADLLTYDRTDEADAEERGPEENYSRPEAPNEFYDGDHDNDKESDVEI
HDAC 3, sequence (Q9Y618 395-489 partner limits assumed): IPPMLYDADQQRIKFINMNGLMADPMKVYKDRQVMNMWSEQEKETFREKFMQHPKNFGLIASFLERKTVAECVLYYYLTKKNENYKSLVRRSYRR
T4 sequence (Q01469 whole entry): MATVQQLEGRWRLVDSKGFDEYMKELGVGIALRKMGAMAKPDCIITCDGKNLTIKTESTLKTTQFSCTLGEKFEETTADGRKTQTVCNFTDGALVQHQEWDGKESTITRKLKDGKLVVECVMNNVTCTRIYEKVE
T3 sequence (P05413 whole entry): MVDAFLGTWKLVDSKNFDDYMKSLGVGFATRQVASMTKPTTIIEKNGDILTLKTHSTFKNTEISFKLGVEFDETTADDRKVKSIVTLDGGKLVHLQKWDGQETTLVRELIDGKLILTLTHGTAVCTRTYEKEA
HDAC1, sequence (Q13547 whole entry): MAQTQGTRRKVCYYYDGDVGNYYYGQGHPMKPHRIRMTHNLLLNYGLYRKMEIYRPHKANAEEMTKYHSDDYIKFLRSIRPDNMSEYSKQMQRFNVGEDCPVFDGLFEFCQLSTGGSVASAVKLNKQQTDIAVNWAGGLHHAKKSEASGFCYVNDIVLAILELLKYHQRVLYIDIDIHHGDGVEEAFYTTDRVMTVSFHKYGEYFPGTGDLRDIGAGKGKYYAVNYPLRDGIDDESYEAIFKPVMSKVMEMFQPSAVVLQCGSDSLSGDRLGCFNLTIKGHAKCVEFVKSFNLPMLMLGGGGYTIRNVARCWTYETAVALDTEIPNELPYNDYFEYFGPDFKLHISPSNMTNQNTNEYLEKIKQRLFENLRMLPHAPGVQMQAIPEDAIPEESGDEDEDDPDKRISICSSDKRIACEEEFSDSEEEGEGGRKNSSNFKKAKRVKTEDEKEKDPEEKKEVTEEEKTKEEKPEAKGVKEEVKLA

Structure (SMILES): CC(/C=C/C(=O)NO)=C\[C@@H](C)C(=O)c1ccc(N(C)C)cc1 [Trichostatin-A]
- Average Cq(TPS) (Telomerase): 32.3
- Telomerase Activity (FC vs. water) (Telomerase): 2.8 FC
- ΔCq sample-water (Telomerase): 1.5

Structure (SMILES): CCCC(=O)[O-].CCCC(=O)[O-].[Ca+2] [Ca n-butyrate, reference compound]
- HDAC 4 activity, % of water-treated controls (HDAC 4; 25 ug/ml): 104%
- HDAC 4 activity, % of water-treated controls (HDAC 4; 50 ug/ml): 102%
- HDAC 4 activity, % of water-treated controls (HDAC 4; 100 ug/ml): 109%

Structure (SMILES): CCCC(=O)NCCCC[C@H](NC(=O)CCC)C(=O)[O-].CCCC(=O)NCCCC[C@H](NC(=O)CCC)C(=O)[O-].[Mg+2] [Mg di-(di-n-butyryl lysinate), magnesium di-(di-n-butyryl lysinate)]
- HDAC 11 activity, % of water-treated controls (HDAC 11; 100 ug/ml): 91%
- HDAC 11 activity, % of water-treated controls (HDAC 11; 200 ug/ml): 91%
- FAAH IC50 (FAAH): 368.5 µg/mL
- FABP-3 IC50 (FABP-3): 282.5 µg/mL
- FABP-5 IC50 (FABP-5): 349.1 µg/mL
- MAGL IC50 (MAGL): 101 µg/mL
- HDAC 3 activity, % of water-treated controls (HDAC 3; 100 ug/ml): 114%
- HDAC 3 activity, % of water-treated controls (HDAC 3; 200 ug/ml): 117%
- HDAC 7 activity, % of water-treated controls (HDAC7; 100 ug/ml): 100%
- HDAC 7 activity, % of water-treated controls (HDAC7; 200 ug/ml): 100%
- HDAC 10 activity, % of water-treated controls (HDAC10; 100 ug/ml): 98%
- HDAC 10 activity, % of water-treated controls (HDAC10; 200 ug/ml): 102%
- HDAC 1 activity, % of water-treated controls (HDAC1): 74%

Structure (SMILES): C=C(C)[C@@H]1CCC(C)=C[C@H]1c1c(O)cc(CCCCC)cc1O [CBD, Cannabidiol, reference compound]
- MAGL IC50 (MAGL): 4,130^2 ^ μg/ml

Structure (SMILES): O=C1O[C@H]([C@@H](O)CO)C([O-])=C1O.[Na+] [Na ascorbate, Sodium ascorbate]
- Type I Collagen C-Peptide (Type I Collagen): 4018 ± 196 ng/mL
- Type IV Collagen C-Peptide (Type IV Collagen): 67.70 ± 5.03 ng/mL
